Series [1] deals with 3T3-L1 adipocytes. As to the kind of experiment: Adiponectin expression level in adipocytes by SDS-PAGE and western blotting. It is filed as cell-based, Mouse. The following applies: sesaminol 0.5 or 1.0 μg/ml added to differentiated adipocytes, three days. Here is the method: Various physiologically active adipocytokines are secreted from adipocytes. Among these adipocytokines, adiponectin is known to improve insulin resistance and prevent atherosclerosis. In the present Example, the profile of adiponectin secretion after addition of sesaminol to adipocytes was analysed by SDS-PAGE and western blotting.
In the same manner as in (1-1) in Example 1, preadipocyte 3T3-L1 cells were cultured until they reached 80 to 90% confluence. […]
The sesaminol solution was added so as to obtain the final concentration of sesaminol of 0.5 or 1.0 μg/ml in adipocytes. […] An aliquot of the collected supernatant was subjected to protein quantification using Serva Blue G (Serva Electrophoresis GmbH) based on the absorbance at 595 nm in order to calculate the amount of sample applied to electrophoresis.
Equal volumes of the supernatant containing cell lysate and a sample buffer were mixed to prepare a sample for electrophoresis. […] The membrane was then subjected to reaction in a DAB solution (3,3′-diaminobenzidine tetrahydrochloride (10 mg), distilled water (1 ml), 0.2 M PBS (50 ml) and 30% H2O2 (100 μl)), dried and then subjected to quantification of intensity of bands using Scion Image (free software: Scion). The ratio of the band intensity of adiponectin relative to the band intensity of β-actin was calculated for the samples.

Series [2] relates to various cell lines used in Examples. As to the kind of experiment: Toxicity and viability check of the sesaminol solution on the cell lines used. It counts as cell-based. The following applies: sesaminol solution (3.0 mg/ml in DMSO) as used in Examples. The method, then:
The highly concentrated sesaminol solution was dissolved in dimethyl sulphoxide (DMSO) to prepare a sesaminol solution (3.0 mg/ml) to be used in Examples.

Series [3] has as its system 3T3-L1 cells. As to the kind of experiment: Adipocyte differentiation: glycerol-3-phosphate dehydrogenase (GPDH) activity of cells after differentiation induction. It counts as cell-based, Mouse. The following applies: sesaminol 0.5 or 1.0 μg/ml during differentiation induction; ** p<0.01 vs control. The method, then: GPDH is a rate-limiting enzyme of triacylglycerol (TG; also referred to as triglyceride) synthesis in adipocytes. […] Thus GPDH activity of cells after differentiation induction was measured according to the method of Wise and Green (Wise, L. S. and Green, H., (1979) Participation of one isozyme of cytosolic glycerophosphate dehydrogenase in the adipose conversion of 3T3 cells. The Journal of Biological Chemistry, 254, 273-275). Cells used for the GPDH assay were obtained in the same manner as described in (1-1) and (1-2). As a control, cells were differentiated without addition of the sesaminol solution.
Adipocytes derived from 3T3-L1 cells on or after Day 8 of induction were washed twice with PBS. Cells were added with a buffer for enzymatic extraction (100 mM triethanolamine, 2.5 mM EDTA) (300 μl) and collected using a cell scraper. […]
To a test tube containing the buffer for enzymatic extraction (2800 μl) which was maintained at 28° C. in a water bath, 2-mercaptoethanol (final concentration: 0.1 mM), NADH (final concentration: 0.12 mM), dihydroxyacetone phosphate (DHAP: SIGMA) (final concentration: 0.2 mM) and a measurement sample (50 μl) were added and the absorbance was measured over 3 minutes at 340 nm. GPDH activity was calculated using an extinction coefficient of NADH (6.22 mM^−1cm^−1) on the basis of the change of absorbance per minute (NADH variation). […]

For series [4], the system named is 3T3-L1 adipocytes. As to the kind of experiment: Fat (TG) accumulation in differentiated adipocytes, Oil red 0 staining and absorbance at 520 nm. It counts as cell-based, Mouse. Conditions: sesaminol 0.5 or 1.0 μg/ml added to differentiated adipocytes, three days. Here is the method:
In the same manner as in (1-1) in Example 1, preadipocyte 3T3-L1 cells were cultured until they reached 80 to 90% confluence. Then the medium was replaced with DMEM containing differentiation inducing agents which were bovine insulin (0.2 μM, Wako Pure Chemical Industries, Ltd.), dexamethasone (0.25 μM, Wako Pure Chemical Industries, Ltd.) and 3-isobutyl-1-methylxanthine (0.5 mM, Wako Pure Chemical Industries, Ltd.) (this is referred to as “Day 0 of differentiation induction”). After two days, the medium was replaced with DMEM containing only insulin (0.2 μM). Thereafter, the medium was replaced with fresh DMEM every two days and induction of differentiation was completed on Day 8 of differentiation induction to obtain adipocytes.
To the obtained adipocytes, the sesaminol solution was added so as to obtain the final concentration of sesaminol of 0.5 or 1.0 μg/ml. As a control, cells were cultured without addition of the sesaminol solution. […] Cells were analysed under a microscope (OLYMPUS IX-70: Olympus Corporation) and photographed. […] After microscopic observation, cells were added with isopropanol (3 ml) to extract Oil red 0 staining solution and the resulting extract was measured for absorbance at 520 nm. According to the measured values, TG accumulations in cells were compared. […]

In series [5] the test system is 3T3-L1 cells. As to the kind of experiment: Adipocyte differentiation: TG accumulation by Oil red 0 staining, sesaminol added during differentiation induction. It is filed as cell-based, Mouse. The following applies: read after Day 8. The method, then:
Preadipocytes, when differentiated into adipocytes, intracellularly accumulate lipid droplets containing TG and the like. In the present Example, sesaminol was added to preadipocyte during induction of differentiation and intracellular TG after completion of induction was stained with an azo dye, Oil red 0, to evaluate an effect of sesaminol on adipocyte differentiation. Mouse fibroblast cell line 3T3-L1 (Japan Health Sciences Foundation) were used as preadipocytes. 3T3-L1 cells were inoculated at a concentration of 1.0×10^5 to 1.0×10^6 cells/ml and cultured until they reached 80 to 90% confluence in a 5% CO2 incubator at 37° C. The culture medium used was Dulbecco's modified Eagle's medium (DMEM: Nissui Pharmaceutical Co., Ltd.) containing 10% fetal bovine serum (FBS: Nichirei Biosciences, Inc.), penicillin (50 units/ml, Meiji Co., Ltd.) and streptomycin ([…], Meiji Co., Ltd.). […] After washing, cells were analysed under a microscope (OLYMPUS IX-70: Olympus Corporation) and photographed.

Turning to `Oc1cc2c(cc1C1OCC3C(c4ccc5c(c4)OCO5)OCC13)OCO2` (stereo not shown) [sesaminol], in the series with 3T3-L1 adipocytes [1], the “adiponectin expression level (band intensity ratio adiponectin/β-actin, control = 1, FIG. 5)” value is “significantly enhanced with an increase in the amount of sesaminol added”. Further, the “toxicity to and effect on viability of cell lines” value in series [2] is “not toxic to and did not affect viability”. The “GPDH activity of cells after differentiation induction (FIG. 2, percent of control)” value with 3T3-L1 cells [3] is listed as “decreased with an increase in the amount of sesaminol added”. Also, the “size of lipid droplets in adipocytes (FIG. 3)” value in the series on 3T3-L1 adipocytes [4] is given as “tend to decrease the size compared to the control”. Further, the “TG accumulation in adipocytes (FIG. 4, percent of control)” value in the series with 3T3-L1 adipocytes [4] (* p<0.05 vs control) is “decreased TG accumulation”. Moreover, the “cells that did not contain stained lipid droplets (Oil red 0, FIG. 1)” value in the series with 3T3-L1 cells [5] (sesaminol 0.5 μg/ml added on Days 0, 2, 4 and 6 of differentiation induction) is “many cells”; in the series with 3T3-L1 cells [5] (sesaminol 1.0 μg/ml added on Days 0, 2, 4 and 6 of differentiation induction), “almost all the cells”.
